# In PubChem BioAssay AID1845206 (Molecular Pharmacology Branch, DTP, NCI, 2023):
# Activity calls are given as the source filed them. Rule for the calls: active = viability on the fitted dose curve at most 10% of control; inactive = the rest.
# Tested on: NCI-H1618 multicellular tumor spheroid viability
# Experiment: Anticancer human tumor NCI-H1618 cell line growth inhibition;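 note: spheroids exposed to agents for 7 days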
# Conditions: for IC50: curve of first compound; for viability, T/C: stronger effect = lower value
# Outline: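 Complex tumor spheroids combined malignant cells with endothelial cells and mesenchymal stem cells. DNA-damaging drugs and DNA repair inhibitors were tested alone and in combination, at half-log dilutions down from clinical Cmax (top 10 microM if Cmax unknown), 0.25% DMSO final.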
smiles,measurement,setting,value
CC(C)n1c(=O)n(C)c2cnc3cc(F)c(-c4ccc(OCCCN5CCCCC5)nc4)cc3c21 + Cn1nnc2c(C(N)=O)ncn2c1=O,IC50,second compound 1 µM,> 10000 nM
same,IC50,second compound 3.16 µM,< 31.6 nM
same,IC50,second compound 10 µM,< 31.6 nM
same,IC50,second compound 31.6 µM,< 31.6 nM
same,IC50,second compound 100 µM,4440 nM
same,"viability, T/C","second compound 1 µM, first compound 0.0316 µM",82.9%
same,outcome,"second compound 1 µM, first compound 0.1 µM",inactive
same,outcome,"second compound 1 µM, first compound 0.316 µM",inactive
same,"viability, T/C","second compound 1 µM, first compound 1 µM",86.7%
same,"viability, T/C","second compound 1 µM, first compound 3.16 µM",78.4%
same,"viability, T/C","second compound 1 µM, first compound 10 µM",69%
same,"viability, T/C","second compound 3.16 µM, first compound 0.0316 µM",20.5%
same,"viability, T/C","second compound 3.16 µM, first compound 0.1 µM",16.2%
same,"viability, T/C","second compound 3.16 µM, first compound 0.316 µM",25.4%
same,"viability, T/C","second compound 3.16 µM, first compound 1 µM",22.2%
same,"viability, T/C","second compound 3.16 µM, first compound 3.16 µM",8.21%
same,"viability, T/C","second compound 3.16 µM, first compound 10 µM",14.4%
same,"viability, T/C","second compound 10 µM, first compound 0.0316 µM",12.6%
same,"viability, T/C","second compound 10 µM, first compound 0.1 µM",2.97%
same,"viability, T/C","second compound 10 µM, first compound 0.316 µM",8.79%
same,"viability, T/C","second compound 10 µM, first compound 1 µM",11.4%
same,"viability, T/C","second compound 10 µM, first compound 3.16 µM",19.9%
same,"viability, T/C","second compound 10 µM, first compound 10 µM",5.34%
same,"viability, T/C","second compound 31.6 µM, first compound 0.0316 µM",9.31%
same,"viability, T/C","second compound 31.6 µM, first compound 0.1 µM",17.1%
same,"viability, T/C","second compound 31.6 µM, first compound 0.316 µM",12.9%
same,"viability, T/C","second compound 31.6 µM, first compound 1 µM",11.6%
same,"viability, T/C","second compound 31.6 µM, first compound 3.16 µM",23%
same,"viability, T/C","second compound 31.6 µM, first compound 10 µM",6.81%
same,"viability, T/C","second compound 100 µM, first compound 0.0316 µM",57.3%
same,"viability, T/C","second compound 100 µM, first compound 0.1 µM",68.8%
same,"viability, T/C","second compound 100 µM, first compound 0.316 µM",52%
same,"viability, T/C","second compound 100 µM, first compound 1 µM",67.2%
same,"viability, T/C","second compound 100 µM, first compound 3.16 µM",57.6%
same,"viability, T/C","second compound 100 µM, first compound 10 µM",29.9%
